Source: patent US20250114356A1, “INDAZOLE BASED COMPOUNDS AND ASSOCIATED METHODS OF USE” (Arvinas Operations, Inc., priority 2020, published 2025)

How the values were obtained:
Type in all cases: cell-based
[1] = molecular target: T1, LRRK2 (endogenous gene tagged with a HiBit sequence) (Homo sapiens, UniProt Q5S007); assay: LRRK2 degradation assay, endogenous LRRK2 gene tagged with HiBit in HEK293 cells; details: 24 hours compound incubation
T1 construct: endogenous in cells; host or cells: HEK293 with a HiBit knock-in at the endogenous LRRK2 locus, stably expressing firefly luciferase
T1 sequence (Q5S007 whole entry): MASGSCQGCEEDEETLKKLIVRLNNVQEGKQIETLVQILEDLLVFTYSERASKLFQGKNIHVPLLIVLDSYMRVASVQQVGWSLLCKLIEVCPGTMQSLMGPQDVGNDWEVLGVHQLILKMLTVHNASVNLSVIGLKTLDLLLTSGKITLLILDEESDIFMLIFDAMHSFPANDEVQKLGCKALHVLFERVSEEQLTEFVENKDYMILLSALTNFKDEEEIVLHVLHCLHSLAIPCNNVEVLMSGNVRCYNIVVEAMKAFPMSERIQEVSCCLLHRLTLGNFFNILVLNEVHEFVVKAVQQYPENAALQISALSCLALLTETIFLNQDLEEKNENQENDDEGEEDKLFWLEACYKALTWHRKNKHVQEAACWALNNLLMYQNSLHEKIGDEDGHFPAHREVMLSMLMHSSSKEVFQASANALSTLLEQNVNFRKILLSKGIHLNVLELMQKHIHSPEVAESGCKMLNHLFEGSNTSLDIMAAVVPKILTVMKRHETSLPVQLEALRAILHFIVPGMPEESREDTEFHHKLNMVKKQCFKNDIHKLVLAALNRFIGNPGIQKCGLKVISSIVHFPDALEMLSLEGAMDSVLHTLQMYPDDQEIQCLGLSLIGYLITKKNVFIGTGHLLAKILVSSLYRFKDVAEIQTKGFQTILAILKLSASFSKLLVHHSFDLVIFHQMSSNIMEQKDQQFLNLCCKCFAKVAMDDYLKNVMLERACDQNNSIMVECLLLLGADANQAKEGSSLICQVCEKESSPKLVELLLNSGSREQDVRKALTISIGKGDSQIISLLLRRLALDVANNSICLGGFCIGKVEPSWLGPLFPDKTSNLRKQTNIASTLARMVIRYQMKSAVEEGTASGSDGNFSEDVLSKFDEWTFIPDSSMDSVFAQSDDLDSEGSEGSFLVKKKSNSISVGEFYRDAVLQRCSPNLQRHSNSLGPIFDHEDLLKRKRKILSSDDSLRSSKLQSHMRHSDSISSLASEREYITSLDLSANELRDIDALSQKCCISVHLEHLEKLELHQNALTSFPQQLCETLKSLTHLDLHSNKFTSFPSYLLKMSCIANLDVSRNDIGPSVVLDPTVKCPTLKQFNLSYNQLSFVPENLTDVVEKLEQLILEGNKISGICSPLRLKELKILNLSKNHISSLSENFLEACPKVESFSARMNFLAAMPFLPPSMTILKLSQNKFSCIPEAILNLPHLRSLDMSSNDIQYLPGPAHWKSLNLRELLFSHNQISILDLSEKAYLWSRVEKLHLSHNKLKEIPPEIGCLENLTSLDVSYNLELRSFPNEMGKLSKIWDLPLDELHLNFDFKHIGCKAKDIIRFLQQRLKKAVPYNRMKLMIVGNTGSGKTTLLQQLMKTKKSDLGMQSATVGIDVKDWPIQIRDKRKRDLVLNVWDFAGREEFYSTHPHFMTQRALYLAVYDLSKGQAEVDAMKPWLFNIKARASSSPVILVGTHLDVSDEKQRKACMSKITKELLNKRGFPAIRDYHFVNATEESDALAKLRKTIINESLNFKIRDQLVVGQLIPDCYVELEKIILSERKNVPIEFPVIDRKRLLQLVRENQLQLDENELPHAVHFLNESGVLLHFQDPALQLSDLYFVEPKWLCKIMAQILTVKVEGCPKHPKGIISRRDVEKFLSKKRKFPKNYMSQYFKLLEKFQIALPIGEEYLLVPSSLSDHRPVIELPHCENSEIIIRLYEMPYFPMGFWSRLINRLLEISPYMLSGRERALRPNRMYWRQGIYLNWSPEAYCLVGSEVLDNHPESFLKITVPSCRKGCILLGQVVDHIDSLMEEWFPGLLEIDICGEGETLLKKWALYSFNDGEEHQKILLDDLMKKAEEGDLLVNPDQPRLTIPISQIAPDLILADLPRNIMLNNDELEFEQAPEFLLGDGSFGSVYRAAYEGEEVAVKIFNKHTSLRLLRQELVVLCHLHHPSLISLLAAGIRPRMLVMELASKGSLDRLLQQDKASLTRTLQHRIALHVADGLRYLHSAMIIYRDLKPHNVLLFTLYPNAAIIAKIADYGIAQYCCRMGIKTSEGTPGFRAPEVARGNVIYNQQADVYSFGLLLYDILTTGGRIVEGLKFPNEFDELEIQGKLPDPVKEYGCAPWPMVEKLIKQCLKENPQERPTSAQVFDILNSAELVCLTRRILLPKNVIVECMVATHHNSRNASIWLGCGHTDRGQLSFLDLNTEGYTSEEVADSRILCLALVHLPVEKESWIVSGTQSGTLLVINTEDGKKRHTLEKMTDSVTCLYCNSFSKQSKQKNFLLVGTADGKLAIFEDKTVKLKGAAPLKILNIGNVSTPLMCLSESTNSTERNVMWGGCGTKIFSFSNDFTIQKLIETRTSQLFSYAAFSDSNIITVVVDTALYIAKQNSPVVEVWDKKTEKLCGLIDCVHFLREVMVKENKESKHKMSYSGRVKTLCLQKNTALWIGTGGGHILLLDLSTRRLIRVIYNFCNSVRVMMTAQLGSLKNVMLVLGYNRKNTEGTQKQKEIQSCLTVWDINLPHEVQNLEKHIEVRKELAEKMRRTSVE
Description: The assay measures the degradation of LRRK2 in cells where the C-terminus (3′) of the endogenous gene has been tagged with a HiBit sequence in HEK293 cells. The cells also express firefly lucisferase, expressed from a Cytomegalovirus promoter and introduced into the HiBit tagged cells and stably expressed. The Nano-Glo® Dual Luciferase Reporter Assay System (Promega™, Madison, WI) was utilized.
Day 1—Preparation of Compound and Assay Plates. Two sets of plates were prepared: a triplicate set for the HiBit assay in white 384-well plates and a triplicate set of plate in black 384-well plates for the Alamar Blue cell viability assay. Briefly, the growth media (DMEM+Glutamax-10% fetal bovine serum-1% Penicillin-Streptomicin) from two T128 flasks was aspirated from the flasks. Cells were washed with Dulbecco's Phosphate Buffered Saline (dPBS) and aspirated. Trypsin (3 mL per flask) was added and the flasks were incubated for 2-3 minutes.
Ten mL of OptiMEM-10% fetal bovine-1% penicillin-streptomycin (hereinafter, “OptiMEM media”) was added to the flask and the cells and transferred to a 50 mL conical tube. A cell count (25 ul of cell into Effendorf vial+25 ul of Trypan Blue Stain) was performed and the cell density adjusted to 15,000 cell/45 μl/well (3.33×10^5/mL) in OptiMEM media.
Forty-five microliters of the cell suspension (15,000 cells) was aliquoted to each well of the white 384-well plate. The plates incubated at room temperature for 10 minutes before being placed in the 37° C.+5% CO2 incubator overnight
Day 2—Compound Treatment. Exemplary compounds were prepared at a 1 mM starting concentration and 1:3 serial dilution for 11 points CRC prepared and stored in the freezer. The Master Compound Plate was thawed overnight at room temperature. DMSO (20 μL) was added into column 24 of the Master Compound Plate for negative control and 20 μL of 300 μM of Exemplary Compound 4 in column 23 as positive control.
Intermediate Compound Plate with 4% DMSO in OptiMEM Media. DMSO was added to warm OptiMEM media to achieve a 4% DMSO solution (approximately 50 mL/plate). One-hundred microliters of the OptiMEM-4% DMSO was aliquoted to each well of 384-Well Deep Well Microplates.
The Master Compound Plate and the Intermediate Compound Plate were spun down.
One microliter of compound from the Master Compound Plate was transferred into the Intermediate plate (a 1:100 dilution). […]
Day 3—HiBit Assay. […] Fluorescence of each plate was read on a plated reader for the Alamar Blue viability assay. […]
The One Glo luciferase mixture was prepared. […] The luminescence of each plate was read on a plate reader.
1:100 DLR substrate and 1:100 LgBiT Protein dilution were added to the Promega Stop and Glo buffer and mixed just before addition to assay plates. […] The luminescence of each plate was read on a plate reader. […]

[2] = molecular target: T2, wildtype LRRK2 (Homo sapiens, UniProt Q5S007); assay: LRRK2 degradation assay, wildtype LRRK2-HiBit expressed from plasmid in HEK293 cells; details: HEK293 cells transfected with HiBit-tagged wildtype LRRK2, 24 hours compound incubation
T2 construct: expressed in transfected cells; host or cells: HEK293 (ATCC CRL-1573), transient transfection, ubiquitin promoter
T2 sequence (Q5S007 whole entry): as above
How it was run: (§1)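 HEK293 cells co-transfected with ubiquitin-promoter C-terminal HiBit-tagged wild-type or G2019S LRRK2 plus firefly luciferase, then treated with compound dose-responses for 24 hours at 37° C. HiBit/firefly luciferase ratio (dual Nano-Glo read) normalized to % DMSO median; DC50 and Dmax fitted per plate, 6 replicates over two days.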

[3] = molecular target: T3, G2019S LRRK2 (Homo sapiens, UniProt Q5S007, G2019S); assay: LRRK2 degradation assay, G2019S LRRK2-HiBit expressed from plasmid in HEK293 cells; details: HEK293 cells transfected with HiBit-tagged G2019S LRRK2, 24 hours compound incubation
T3 construct: expressed in transfected cells; host or cells: HEK293 (ATCC CRL-1573), transient transfection, ubiquitin promoter
T3 sequence (Q5S007 whole entry G2019S): as the sequence (Q5S007 whole entry) above, with G2019S counted along it
How it was run: as §1

Dmax ([1]; read-out: **Endogenous WT Dmax (%)): 50 to 70%
DC50 ([1]; read-out: *Endogenous WT DC50): < 10 nM
Dmax ([2]; read-out: **WT Dmax (%)): 50 to 70%
DC50 ([2]; read-out: *WT DC50): < 10 nM
DC50 [3]: < 10 nM
Dmax [3]: ≥ 70%
SMILES: C[C@H]1CN(c2cc(-c3n[nH]c4ccc(OC5(C)CC5)cc34)ncn2)CCN1CC1CCN(CC2CCN(c3ccc4c(c3)C(=O)N(C3CCC(=O)NC3=O)C4=O)CC2)CC1 (stereo partly drawn) [compound 24, 2-(2,6-dioxopiperidin-3-yl)-5-{4-[(4-{[(2S)-2-methyl-4-{6-[5-(1-methylcyclopropoxy)-1H-indazol-3-yl]pyrimidin-4-yl}piperazin-1-yl]methyl}piperidin-1-yl)methyl]piperidin-1-yl}-2,3-dihydro-1H-isoindole-1,3-dione]
